Legend:
[1] = stability of the polymorphic form; assay type: physicochemical; details: statement in summary, no conditions given
[2] = aqueous solubility of cilostazol polymorphic forms; assay type: physicochemical
[3] = bioavailability of cilostazol Form A; assay type: in vivo; details: Form A as prepared by the procedures of the '479 patent

## O=C1CCc2cc(OCCCCc3nnnn3C3CCCCC3)ccc2N1 [Form B, 6-[4-(1-cyclohexyl-1H-tetrazol-5-yl)butoxy]-3,4-dihydro-2(1H)-quinolinone]
[1]
  stability of the form: stable
[2]; inferred from lower DSC melting point (FIG. 8), no solubility measurement
  solubility relative to Form A: more soluble than Form A

## O=C1CCc2cc(OCCCCc3nnnn3C3CCCCC3)ccc2N1 [Form A, 6-[4-(1-cyclohexyl-1H-tetrazol-5-yl)butoxy]-3,4-dihydro-2(1H)-quinolinone]
[3]
  bioavailability: low bioavailability
[2]; Form A as prepared by the procedures of the '479 patent
  aqueous solubility: low aqueous solubility

— patent publication US20030045548A1, “Polymorphic forms of 6-[4-(1-cyclohexyl-1H-tetrazol-5-YL)butoxy]-3,4-dihydro-2(1H)-quinolinone” (priority 2001, published 2003)
